Target: BRD4 (Homo sapiens, UniProt O60885)
Assay: Time Resolved Fluorescence Resonance Energy Transfer (TR-FRET) binding assay, BRD4
Settings: one of the FRET assays described; read-out: FRET BRD4 IC50

| SMILES | IC50 [nM] |
| --- | --- |
| Cc1nnn(C)c1-c1cnc2c3ccc(C(C)(C)O)cc3n(C(c3cc(F)ccc3F)C3CCOCC3)c2c1 (single isomer, unassigned) [Example 131, 2-{5-[(2,5-Difluorophenyl)(oxan-4-yl)methyl]-3-(dimethyl-1H-1,2,3-triazol-5-yl)-5H-pyrido[3,2-b]indol-7-yl}propan-2-ol] | < 5 |
| Cc1nnn(C)c1-c1cnc2c3cc(F)c(C(C)(O)C4CC4)c(F)c3n([C@H](c3ccccc3)C3CCOCC3)c2c1 (single isomer, unassigned) [Example 449] | < 5 |
| [2H]C([2H])([2H])c1nnn(C)c1-c1cnc2c3ccc(C(C)(C)O)c(F)c3n(C(c3ccc(F)cc3F)C3CCOCC3)c2c1 (stereo not shown) [Example 282, 2-{5-[(2,4-Difluorophenyl)(oxan-4-yl)methyl]-6-fluoro-3-[4-(^2H3)methyl-1-methyl-1H-1,2,3-triazol-5-yl]-5H-pyrido[3,2-b]indol-7-yl}propan-2-ol] | < 5 |
| [2H]C([2H])([2H])c1nnn(C)c1-c1cnc2c3c(OC)ccc(S(C)(=O)=O)c3n([C@H](c3ccccc3)C3CCOCC3)c2c1 [Example 183, 5-{6-Methanesulfonyl-9-methoxy-5-[(S)-oxan-4-yl(phenyl)methyl]-5H-pyrido[3,2-b]indol-3-yl}-4-(^2H3)methyl-1-methyl-1H-1,2,3-triazole] | < 5 |
| COc1ccc(S(C)(=O)=O)c2c1c1ncc(-c3c(C)nnn3C)cc1n2[C@H](c1ccccc1F)C1CCOCC1 [Example 188, 5-{5-[(S)-(2-Fluorophenyl)(oxan-4-yl)methyl]-6-methanesulfonyl-9-methoxy-5H-pyrido[3,2-b]indol-3-yl}-1,4-dimethyl-1H-1,2,3-triazole] | < 5 |
| COc1nnn(C)c1-c1cnc2c3ccc(C(C)(C)O)cc3n([C@H](c3ccccc3)C3CCOCC3)c2c1 [Example 379, 2-[3-(4-Methoxy-1-Methyl-1H-1,2,3-triazol-5-yl)-5-[(S)-oxan-4-yl(phenyl)methyl]-5H-pyrido[3,2-b]indol-7-yl]propan-2-ol] | < 5 |
| Cc1ccnc([C@H](C2CCOCC2)n2c3cc(CS(C)(=O)=O)ccc3c3ncc(-c4c(C)nnn4C)cc32)c1 [Example 337] | < 5 |
| [2H]C([2H])([2H])c1nnn(C)c1-c1cnc2c3cc(F)c(C(C)(C)O)c(F)c3n([C@H](c3ccccc3)C3CCOCC3)c2c1 [Example 452, 2-{6,8-Difluoro-3-[4-(^2H3)methyl-1-methyl-1H-1,2,3-triazol-5-yl]-5-[(S)-oxan-4-yl(phenyl)methyl]-5H-pyrido[3,2-b]indol-7-yl}propan-2-ol] | < 5 |
| Cn1nncc1-c1cnc2c3ccc(C(C)(C)O)cc3n(C(c3ccc(F)cc3)C3CCOCC3)c2c1 (single isomer, unassigned) [Example 66, 2-{5-[(4-Fluorophenyl)(oxan-4-yl)methyl]-3-(1-methyl-1H-1,2,3-triazol-5-yl)-5H-pyrido[3,2-b]indol-7-yl}propan-2-ol] | < 5 |
| COc1cc(C(C)(C)O)cc2c1c1ncc(-c3c(C)nnn3C)cc1n2[C@H](c1ccccc1F)C1CCOCC1 [Example 274] | < 5 |
| Cc1nnn(C)c1-c1cnc2c3cc(CCC(C)(C)O)ccc3n([C@H](c3ccccc3)C3CCOCC3)c2c1 [Example 153, 4-[3-(Dimethyl-1H-1,2,3-triazol-5-yl)-5-[(S)-oxan-4-yl(phenyl)methyl]-5H-pyrido[3,2-b]indol-8-yl]-2-methylbutan-2-ol] | < 5 |
| Cc1nnn(C)c1-c1cnc2c3ccc(CS(C)(=O)=O)cc3n([C@H](c3ncccc3F)C3CCOCC3)c2c1 [Example 332] | < 5 |
| Cn1nnc(Cl)c1-c1cnc2c3cc(Cl)c(C(C)(C)O)cc3n([C@H](c3ccccc3)C3CCOCC3)c2c1 [Example 386, 2-[8-Chloro-3-(4-chloro-1-methyl-1H-1,2,3-triazol-5-yl)-5-[(S)-oxan-4-yl(phenyl)methyl]-5H-pyrido[3,2-b]indol-7-yl]propan-2-ol] | < 5 |
| Cc1nnn(C)c1-c1cnc2c3ccc(C(C)(C)O)cc3n([C@@H](c3ccccc3)C3CCOCC3)c2c1 (single isomer, unassigned) [Example 55, 2-[3-(Dimethyl-1H-1,2,3-triazol-5-yl)-5-[oxan-4-yl(phenyl)methyl]-5H-pyrido[3,2-b]indol-7-yl]propan-2-ol] | < 5 |
| Cc1noc(C)c1-c1cnc2c3ccc(C(C)(C)O)cc3n(C(c3c(F)cc(F)cc3F)C3CCOCC3)c2c1 (single isomer, unassigned) [Example 127, 2-[3-(Dimethyl-1,2-oxazol-4-yl)-5-[oxan-4-yl(2,4,6-trifluorophenyl)methyl]-5H-pyrido[3,2-b]indol-7-yl]propan-2-ol] | < 5 |
| Cc1noc(C)c1-c1cnc2c3ccc(S(C)(=O)=O)cc3n([C@H](c3ccccc3F)C3CCOCC3)c2c1 [Example 173] | < 5 |
| Cc1nnn(C)c1-c1cnc2c3ccc(S(C)(=O)=O)cc3n([C@H](c3ccccc3F)C3CCOCC3)c2c1 [Example 264] | < 5 |
| Cc1noc(C)c1-c1cnc2c3ccc(C(F)F)cc3n(Cc3ccccc3)c2c1 [Example 50, 4-[5-Benzyl-7-(difluoromethyl)-5H-pyrido[3,2-b]indol-3-yl]-3,5-dimethyl-1,2-oxazole] | < 1500 |
| [2H]C([2H])([2H])c1nnn(C)c1-c1cnc2c3c(F)ccc(S(C)(=O)=O)c3n(C(c3ncccc3F)C3CCOCC3)c2c1 (stereo not shown) [Example 236, 3-Fluoro-2-({9-fluoro-6-methanesulfonyl-3-[4-(^2H3)methyl-1-methyl-1H-1,2,3-triazol-5-yl]-5H-pyrido[3,2-b]indol-5-yl}(oxan-4-yl)methyl)pyridine] | < 1500 |
| Cc1noc(C)c1-c1cnc2c3ccc(C(C)(C)O)cc3n(CC3CCOCC3)c2c1 [Example 47] | < 25 |
| COC(=O)Nc1ccc2c3ncc(-c4c(C)nnn4C)cc3n([C@H](c3ccccc3)C3CCOCC3)c2c1 [Example 365, Methyl N-[3-(dimethyl-1H-1,2,3-triazol-5-yl)-5-[(S)-oxan-4-yl(phenyl)methyl]-5H-pyrido[3,2-b]indol-7-yl]carbamate] | < 5 |
| [2H]C([2H])([2H])c1nnn(C)c1-c1cnc2c3c(F)ccc(S(C)(=O)=O)c3n(C(c3ncccc3F)C3CCOCC3)c2c1 (stereo not shown) [Example 235, 3-Fluoro-2-({9-fluoro-6-methanesulfonyl-3-[4-(^2H3)methyl-1-methyl-1H-1,2,3-triazol-5-yl]-5H-pyrido[3,2-b]indol-5-yl}(oxan-4-yl)methyl)pyridine] | < 5 |
| Cc1oncc1-c1cnc2c3ccc(C(C)(C)O)cc3n(C(c3ccc(F)cc3)C3CCOCC3)c2c1 (single isomer, unassigned) [Example 40, 2-{5-[(4-Fluorophenyl)(oxan-4-yl)methyl]-3-(5-methyl-1,2-oxazol-4-yl)-5H-pyrido[3,2-b]indol-7-yl}propan-2-ol] | < 25 |
| Cc1nnn(C)c1-c1cnc2c3ccc(C(C)(C)O)cc3n(C(CC3CC3)C3CCOCC3)c2c1 (single isomer, unassigned) [Example 395] | < 5 |
| Cc1ncn(C)c1-c1cnc2c3ccc(S(C)(=O)=O)cc3n([C@H](c3ccccc3)C3CCOCC3)c2c1 [Example 454, 5-{7-Methanesulfonyl-5-[(S)-oxan-4-yl(phenyl)methyl]-5H-pyrido[3,2-b]indol-3-yl}-1,4-dimethyl-1H-imidazole] | < 25 |

— patent US10112941B2, “Tricyclic compounds as anticancer agents” (BRISTOL-MYERS SQUIBB COMPANY, priority 2013, dated 2018)
